Experimental data taken from US20230085307A1, “PYRIDAZINONE COMPOUND AND HERBICIDE” (NISSAN CHEMICAL CORPORATION, priority 2019, published 2023).

How the values were obtained:
redroot pigweed [1] = experiment: Test Example 5: herbicidal effect by foliage application, plastic box (Table 20, symbol N); type: in vivo, redroot pigweed (Amaranthus retroflexus); details: foliage application, evaluated three weeks after application
In short: (§1)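 Plants sown in sterilized diluvial soil and grown 14 days in a greenhouse at 25° C to 30° C, then sprayed on the foliage with the compound's emulsion diluted in water to a predetermined herbicide amount. Injury to weeds and crops scored three weeks after application on a visual rating scale.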

barnyard grass [2] = experiment: Test Example 3: herbicidal effect by foliage application, Wagner pot (Table 18, symbol H); type: in vivo, barnyard grass (Echinochloa crus-galli); details: amount of applied herbicide 320 g/ha
In short: (§2)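 Plants were sown in alluvial soil held under 0.1–0.5 cm standing water and grown 14 days in a greenhouse at 25–30 °C. An emulsifiable formulation, water-diluted to the set dose, was then sprayed onto the foliage, and effects were scored three weeks later using previously defined criteria.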

windgrass [3] = experiment: Test Example 4: herbicidal effect by soil treatment (Table 19, symbol L); type: in vivo, windgrass (Apera spica-venti); details: amount of applied herbicide 320 g/ha
In short: (§3)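 Seeds were sown in sterilized diluvial soil and covered with about 1.5 cm of soil. An emulsion formulation diluted with water to a predetermined herbicide amount was sprayed evenly onto the soil surface. Plants grew in a greenhouse at 25° C. to 30° C., and the effect was scored three weeks after application using criteria from an earlier test.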

velvetleaf [4] = experiment: Test Example 5: herbicidal effect by foliage application, plastic box (Table 20, symbol M); type: in vivo, velvetleaf (Abutilon theophrasti); details: foliage application, evaluated three weeks after application
In short: as §1

windgrass [5] = experiment: Test Example 5: herbicidal effect by foliage application, plastic box (Table 20, symbol L); type: in vivo, windgrass (Apera spica-venti); details: foliage application, evaluated three weeks after application
In short: as §1

Italian ryegrass [6] = experiment: Test Example 4: herbicidal effect by soil treatment (Table 19, symbol K); type: in vivo, Italian ryegrass (Lolium multiflorum); details: amount of applied herbicide 320 g/ha
In short: as §3

velvetleaf [7] = experiment: Test Example 4: herbicidal effect by soil treatment (Table 19, symbol M); type: in vivo, velvetleaf (Abutilon theophrasti); details: amount of applied herbicide 320 g/ha
In short: as §3

Chinese sprangletop = experiment: Test Example 3: herbicidal effect by foliage application, Wagner pot (Table 18, symbol D); type: in vivo, chinese sprangletop (Leptochloa chinensis); details: amount of applied herbicide 320 g/ha
In short: as §2

southern crabgrass [8] = experiment: Test Example 5: herbicidal effect by foliage application, plastic box (Table 20, symbol F); type: in vivo, southern crabgrass (Digitaria ciliaris); details: foliage application, evaluated three weeks after application
In short: as §1

persian speedwell [9] = experiment: Test Example 4: herbicidal effect by soil treatment (Table 19, symbol R); type: in vivo, Persian speedwell (Veronica persica); details: amount of applied herbicide 320 g/ha
In short: as §3

lambsquarters [10] = experiment: Test Example 4: herbicidal effect by soil treatment (Table 19, symbol O); type: in vivo, lambsquarters (Chenopodium album); details: amount of applied herbicide 320 g/ha
In short: as §3

false cleavers = experiment: Test Example 5: herbicidal effect by foliage application, plastic box (Table 20, symbol Q); type: in vivo, false cleavers (Galium spurium); details: foliage application, evaluated three weeks after application
In short: as §1

persian speedwell [11] = experiment: Test Example 5: herbicidal effect by foliage application, plastic box (Table 20, symbol R); type: in vivo, Persian speedwell (Veronica persica); details: foliage application, evaluated three weeks after application
In short: as §1

barnyard grass [12] = experiment: Test Example 5: herbicidal effect by foliage application, plastic box (Table 20, symbol H); type: in vivo, barnyard grass (Echinochloa crus-galli); details: foliage application, evaluated three weeks after application
In short: as §1

lambsquarters [13] = experiment: Test Example 5: herbicidal effect by foliage application, plastic box (Table 20, symbol O); type: in vivo, lambsquarters (Chenopodium album); details: foliage application, evaluated three weeks after application
In short: as §1

wild oat [14] = experiment: Test Example 4: herbicidal effect by soil treatment (Table 19, symbol I); type: in vivo, wild oat (Avena fatua); details: amount of applied herbicide 320 g/ha
In short: as §3

green foxtail [15] = experiment: Test Example 4: herbicidal effect by soil treatment (Table 19, symbol G); type: in vivo, green foxtail (Setaria viridis); details: amount of applied herbicide 320 g/ha
In short: as §3

rice flat sedge = experiment: Test Example 3: herbicidal effect by foliage application, Wagner pot (Table 18, symbol E); type: in vivo, rice flat sedge (Cyperus iria); details: amount of applied herbicide 320 g/ha
In short: as §2

barnyard grass [16] = experiment: Test Example 4: herbicidal effect by soil treatment (Table 19, symbol H); type: in vivo, barnyard grass (Echinochloa crus-galli); details: amount of applied herbicide 320 g/ha
In short: as §3

Italian ryegrass [17] = experiment: Test Example 5: herbicidal effect by foliage application, plastic box (Table 20, symbol K); type: in vivo, Italian ryegrass (Lolium multiflorum); details: foliage application, evaluated three weeks after application
In short: as §1

blackgrass [18] = experiment: Test Example 4: herbicidal effect by soil treatment (Table 19, symbol J); type: in vivo, blackgrass (Alopecurus myosuroides); details: amount of applied herbicide 320 g/ha
In short: as §3

chickweed [19] = experiment: Test Example 4: herbicidal effect by soil treatment (Table 19, symbol P); type: in vivo, common chickweed (Stellaria media); details: amount of applied herbicide 320 g/ha
In short: as §3

green foxtail [20] = experiment: Test Example 5: herbicidal effect by foliage application, plastic box (Table 20, symbol G); type: in vivo, green foxtail (Setaria viridis); details: foliage application, evaluated three weeks after application
In short: as §1

southern crabgrass [21] = experiment: Test Example 4: herbicidal effect by soil treatment (Table 19, symbol F); type: in vivo, southern crabgrass (Digitaria ciliaris); details: amount of applied herbicide 320 g/ha
In short: as §3

wild oat [22] = experiment: Test Example 5: herbicidal effect by foliage application, plastic box (Table 20, symbol I); type: in vivo, wild oat (Avena fatua); details: foliage application, evaluated three weeks after application
In short: as §1

redroot pigweed [23] = experiment: Test Example 4: herbicidal effect by soil treatment (Table 19, symbol N); type: in vivo, redroot pigweed (Amaranthus retroflexus); details: amount of applied herbicide 320 g/ha
In short: as §3

blackgrass [24] = experiment: Test Example 5: herbicidal effect by foliage application, plastic box (Table 20, symbol J); type: in vivo, blackgrass (Alopecurus myosuroides); details: foliage application, evaluated three weeks after application
In short: as §1

chickweed [25] = experiment: Test Example 5: herbicidal effect by foliage application, plastic box (Table 20, symbol P); type: in vivo, common chickweed (Stellaria media); details: foliage application, evaluated three weeks after application
In short: as §1

CCCOc1cccc(-c2sc3ccc(F)cc3c2-c2c(OC(=O)CCC)c(C)nn(C)c2=O)c1 [2-214]
herbicidal effect on N: redroot pigweed (criteria 0-5) (redroot pigweed [1]; 320 g/ha): 4 (Herbicidal rate of 70% or more and less than 90%) | herbicidal effect on H: barnyard grass (barnyard grass [2]): 3 (Herbicidal rate of 40% or more and less than 70%) | L: windgrass, herbicidal effect rating (windgrass [3]): 0 (Herbicidal rate of 5% or less (almost no effect)) | herbicidal effect on M: velvetleaf (criteria 0-5) (velvetleaf [4]; 320 g/ha): 3 (Herbicidal rate of 40% or more and less than 70%) | herbicidal effect on L: windgrass (criteria 0-5) (windgrass [5]; 320 g/ha): 0 (Herbicidal rate of 5% or less (almost no effect)) | K: Italian ryegrass, herbicidal effect rating (Italian ryegrass [6]): 0 (Herbicidal rate of 5% or less (almost no effect)) | M: velvetleaf, herbicidal effect rating (velvetleaf [7]): 3 (Herbicidal rate of 40% or more and less than 70%) | herbicidal effect on D: Chinese sprangletop (Chinese sprangletop): 3 (Herbicidal rate of 40% or more and less than 70%) | herbicidal effect on F: southern crabgrass (criteria 0-5) (southern crabgrass [8]; 320 g/ha): 4 (Herbicidal rate of 70% or more and less than 90%) | R: persian speedwell, herbicidal effect rating (persian speedwell [9]): 5 (Herbicidal rate of 90% or more (almost completely withered)) | O: lambsquarters, herbicidal effect rating (lambsquarters [10]): 2 (Herbicidal rate of 20% or more and less than 40%) | herbicidal effect on Q: false cleavers (criteria 0-5) (false cleavers; 320 g/ha): 2 (Herbicidal rate of 20% or more and less than 40%) | herbicidal effect on R: persian speedwell (criteria 0-5) (persian speedwell [11]; 320 g/ha): 5 (Herbicidal rate of 90% or more (almost completely withered)) | herbicidal effect on H: barnyard grass (criteria 0-5) (barnyard grass [12]; 320 g/ha): 1 (Herbicidal rate of 5% or more and less than 20%) | herbicidal effect on O: lambsquarters (criteria 0-5) (lambsquarters [13]; 320 g/ha): 2 (Herbicidal rate of 20% or more and less than 40%) | I: wild oat, herbicidal effect rating (wild oat [14]): 0 (Herbicidal rate of 5% or less (almost no effect)) | G: green foxtail, herbicidal effect rating (green foxtail [15]): 4 (Herbicidal rate of 70% or more and less than 90%) | herbicidal effect on E: rice flat sedge (rice flat sedge): 4 (Herbicidal rate of 70% or more and less than 90%) | H: barnyard grass, herbicidal effect rating (barnyard grass [16]): 3 (Herbicidal rate of 40% or more and less than 70%) | herbicidal effect on K: Italian ryegrass (criteria 0-5) (Italian ryegrass [17]; 320 g/ha): 1 (Herbicidal rate of 5% or more and less than 20%) | J: blackgrass, herbicidal effect rating (blackgrass [18]): 0 (Herbicidal rate of 5% or less (almost no effect)) | P: chickweed, herbicidal effect rating (chickweed [19]): 3 (Herbicidal rate of 40% or more and less than 70%) | herbicidal effect on G: green foxtail (criteria 0-5) (green foxtail [20]; 320 g/ha): 4 (Herbicidal rate of 70% or more and less than 90%) | F: southern crabgrass, herbicidal effect rating (southern crabgrass [21]): 4 (Herbicidal rate of 70% or more and less than 90%) | herbicidal effect on I: wild oat (criteria 0-5) (wild oat [22]; 320 g/ha): 0 (Herbicidal rate of 5% or less (almost no effect)) | N: redroot pigweed, herbicidal effect rating (redroot pigweed [23]): 5 (Herbicidal rate of 90% or more (almost completely withered)) | herbicidal effect on J: blackgrass (criteria 0-5) (blackgrass [24]; 320 g/ha): 0 (Herbicidal rate of 5% or less (almost no effect)) | herbicidal effect on P: chickweed (criteria 0-5) (chickweed [25]; 320 g/ha): 5 (Herbicidal rate of 90% or more (almost completely withered))

Cc1nn(C)c(=O)c(-c2c(-c3ccc(OC(F)F)cc3)sc3ccc(F)cc23)c1OS(=O)(=O)C(C)C [2-309]
N: redroot pigweed, herbicidal effect (criteria 0-5) (redroot pigweed [1]; AAH 320 g/ha): 5 (Herbicidal rate of 90% or more (almost completely withered)) | herbicidal effect on H: barnyard grass (barnyard grass [2]): 5 (Herbicidal rate of 90% or more (almost completely withered)) | herbicidal effect on L: windgrass (windgrass [3]): 0 (Herbicidal rate of 5% or less (almost no effect)) | M: velvetleaf, herbicidal effect (criteria 0-5) (velvetleaf [4]; AAH 320 g/ha): 5 (Herbicidal rate of 90% or more (almost completely withered)) | L: windgrass, herbicidal effect (criteria 0-5) (windgrass [5]; AAH 320 g/ha): 1 (Herbicidal rate of 5% or more and less than 20%) | herbicidal effect on K: Italian ryegrass (Italian ryegrass [6]): 0 (Herbicidal rate of 5% or less (almost no effect)) | herbicidal effect on M: velvetleaf (velvetleaf [7]): 1 (Herbicidal rate of 5% or more and less than 20%) | herbicidal effect on D: Chinese sprangletop (Chinese sprangletop): 3 (Herbicidal rate of 40% or more and less than 70%) | F: southern crabgrass, herbicidal effect (criteria 0-5) (southern crabgrass [8]; AAH 320 g/ha): 0 (Herbicidal rate of 5% or less (almost no effect)) | herbicidal effect on R: persian speedwell (persian speedwell [9]): 5 (Herbicidal rate of 90% or more (almost completely withered)) | herbicidal effect on O: lambsquarters (lambsquarters [10]): 4 (Herbicidal rate of 70% or more and less than 90%) | Q: false cleavers, herbicidal effect (criteria 0-5) (false cleavers; AAH 320 g/ha): 4 (Herbicidal rate of 70% or more and less than 90%) | R: persian speedwell, herbicidal effect (criteria 0-5) (persian speedwell [11]; AAH 320 g/ha): 5 (Herbicidal rate of 90% or more (almost completely withered)) | H: barnyard grass, herbicidal effect (criteria 0-5) (barnyard grass [12]; AAH 320 g/ha): 5 (Herbicidal rate of 90% or more (almost completely withered)) | O: lambsquarters, herbicidal effect (criteria 0-5) (lambsquarters [13]; AAH 320 g/ha): 5 (Herbicidal rate of 90% or more (almost completely withered)) | herbicidal effect on I: wild oat (wild oat [14]): 0 (Herbicidal rate of 5% or less (almost no effect)) | herbicidal effect on G: green foxtail (green foxtail [15]): 0 (Herbicidal rate of 5% or less (almost no effect)) | herbicidal effect on E: rice flat sedge (rice flat sedge): 5 (Herbicidal rate of 90% or more (almost completely withered)) | herbicidal effect on H: barnyard grass (barnyard grass [16]): 0 (Herbicidal rate of 5% or less (almost no effect)) | K: Italian ryegrass, herbicidal effect (criteria 0-5) (Italian ryegrass [17]; AAH 320 g/ha): 4 (Herbicidal rate of 70% or more and less than 90%) | herbicidal effect on J: blackgrass (blackgrass [18]): 0 (Herbicidal rate of 5% or less (almost no effect)) | herbicidal effect on P: chickweed (chickweed [19]): 3 (Herbicidal rate of 40% or more and less than 70%) | G: green foxtail, herbicidal effect (criteria 0-5) (green foxtail [20]; AAH 320 g/ha): 5 (Herbicidal rate of 90% or more (almost completely withered)) | herbicidal effect on F: southern crabgrass (southern crabgrass [21]): 0 (Herbicidal rate of 5% or less (almost no effect)) | I: wild oat, herbicidal effect (criteria 0-5) (wild oat [22]; AAH 320 g/ha): 1 (Herbicidal rate of 5% or more and less than 20%) | herbicidal effect on N: redroot pigweed (redroot pigweed [23]): 5 (Herbicidal rate of 90% or more (almost completely withered)) | J: blackgrass, herbicidal effect (criteria 0-5) (blackgrass [24]; AAH 320 g/ha): 3 (Herbicidal rate of 40% or more and less than 70%) | P: chickweed, herbicidal effect (criteria 0-5) (chickweed [25]; AAH 320 g/ha): 5 (Herbicidal rate of 90% or more (almost completely withered))
